# Laboratory results as given in patent publication US11007355B2 (TARIS Biomedical LLC, priority 2012, dated 2021).
# Values joined by “and” are separate entries in the source; they are usually repeats but may differ in a detail not shown here. Equal values may be shown once. “Also recorded” adds a separate entry of the source. Read-outs that look alike come from different tables or passages of the source.
# What was measured:
# [1] = Platinum content of blood, urine and terminal tissues by ICP-MS after bladder perfusion or IV bolus (Example 1); format: in vivo, rat
# male Sprague Dawley rats [2] = assay: Bladder tolerability in rats: clinical observations during perfusion and tissue observations at necropsy (Example 1); format: in vivo, rat
# Experimental: For each drug, each test group included three male rats. The perfusate drug concentration was set to 0.3 mg/mL and the perfusion rate used was 300 μL/hour over the test periods.
# Perfusion solutions were prepared by dissolving each drug substance into an appropriate volume of saline. The finals doses administered are summarized below.
# male Sprague Dawley rats [3] = details: 72-hour bladder perfusion
# Experimental: (§1) Blood, urine, and tissue samples were collected and analyzed for drug content.
# (§2) The perfusate formulation concentration was 0.308 mg/mL. Dose (mg/kg) was calculated as (Dose administered (g) x formulation concentration (mg/mL))/Animal Wt. (kg). The drug solutions were dosed over a 72-hour period into the non-fasted animal's bladder by intra-urinary bladder cannula using an infusion pump.
# (§3) Whole blood samples were taken via tailnick or jugular vein cannula at the following time points following the start of perfusion: 0, 4, 8, 24, and 48 hours. Urine was collected pre-dose and for 0-24, 24-48, and 48-72-hour periods post dose.
# (§4) Following the 72-hour infusion period the animals were sacrificed, terminal blood samples were taken via the abdominal aorta, and bladder, prostate, ureter, and kidney tissues were collected, weighed, and visually inspected for evidence of tolerability/reaction from exposure to the drug.
# [4] = Oxaliplatin tissue permeability: platinum in blood, urine and tissues after 72-hour bladder perfusion (Example 2)
# Experimental: as §1, §2, §3, §4
# [5] = Group 1: 24-hr bladder perfusion, 0.3 mg/mL
# [6] = Group 2: 72-hr bladder perfusion, 0.3 mg/mL
# [7] = Group 4: IV bolus with saline perfusion via cannula
# [8] = 0.308 mg/mL, individual animals 47, 48, 49
structure (smiles),measurement,setting,value
N.N.O=C([O-])C1(C(=O)[O-])CCC1.[Pt+2] [carboplatin],Blood profile (platinum),"[1]; IV bolus, FIG. 8",significant peak systemic platinum exposure followed by a sharp decay
same,Amount in the IV bolus terminal phase as compared with cisplatin,"[1]; IV bolus, blood",one quarter less
same,Therapeutic tissue platinum concentrations by intravesical perfusion,[1]; bladder perfusion 0.3 mg/mL,does not achieve therapeutic tissue platinum concentrations
same,"Observed plasma levels (blood profile, platinum)","[1]; bladder perfusion groups, FIG. 8",near the limit of the assay detection (twice the limits of detection) to below the quantitation limit
same,Tissue levels (terminal platinum concentrations) compared with cisplatin,"[1]; bladder perfusion, FIG. 9",consistently less than those observed following cisplatin bladder perfusion
same,Bladder tissue concentrations relative to IC50,"[1]; bladder perfusion, terminal bladder tissue",below the IC50 of carboplatin
same,Tissue Observations at Necropsy: bladder lumen erythemic discoloration (grade),male Sprague Dawley rats [2]; [5],Bladder lumen: slight to mild
same,"Tissue Observations at Necropsy: erythemic discoloration, share of lumen",male Sprague Dawley rats [2]; [5],10-30 % of lumen
same,Tissue Observations at Necropsy: evidence of tissue edema/thickened bladder walls,male Sprague Dawley rats [2]; [5],no
same,Clinical Observations of note during Perfusion,"male Sprague Dawley rats [2]; Group 1: 24-hr perfusion via cannula to bladder dome, 0.3 mg/mL, 300 μL/hour, 3 male rats",Normal
same,Tissue Observations at Necropsy: bladder lumen erythemic discoloration (grade),male Sprague Dawley rats [2]; [6],Bladder lumen: slight to mild
same,"Tissue Observations at Necropsy: erythemic discoloration, share of lumen",male Sprague Dawley rats [2]; [6],10-30 % of lumen
same,Tissue Observations at Necropsy: evidence of tissue edema/thickened bladder walls,male Sprague Dawley rats [2]; [6],no
same,Clinical Observations of note during Perfusion,"male Sprague Dawley rats [2]; Group 2: 72-hr perfusion via cannula to bladder dome, 0.3 mg/mL, 300 μL/hour, 3 male rats",Normal
same,Tissue Observations at Necropsy: bladder lumen erythemic discoloration (grade),male Sprague Dawley rats [2]; [7],Bladder lumen: slight generalized
same,"Tissue Observations at Necropsy: erythemic discoloration, share of lumen",male Sprague Dawley rats [2]; [7],"erythemic discoloration, 5-10% of lumen"
same,Clinical Observations of note during Perfusion,"male Sprague Dawley rats [2]; Group 4: IV bolus with saline perfusion via cannula, 3 male rats",Red tinted urine
same,Appearance of animals during perfusion period,"male Sprague Dawley rats [2]; all dosed animals (Groups 1, 2, 4)",all animals appeared normal
same,Bladder tolerability and tissue permeability criteria (overall),"male Sprague Dawley rats [2]; bladder perfusion, Example 1",meet only one or other of these criteria
N.N.[Cl][Pt][Cl] [cisplatin],"Bladder platinum concentrations, 72 hr perfusions compared to 24 hr perfusions","[1]; rat, in vivo",Significantly higher and more variable
same,"Blood profile (platinum, whole blood)","[1]; rat, in vivo",rising blood levels
same,Clinical Observations of note during Perfusion,"male Sprague Dawley rats [2]; rat, in vivo, iv",Normal
same,Tissue Observations at Necropsy (overall),"male Sprague Dawley rats [2]; rat, in vivo, iv",No observations
O=C1[O][Pt]2([NH][C@@H]3CCCC[C@H]3[NH]2)[O]C1=O [oxaliplatin],Appearance of animals throughout the study,male Sprague Dawley rats [3]; 0.308 mg/mL,All animals appeared normal
same,Observations at necropsy: erythemia (animal 48: erythemia and edema) on inside wall of bladder associated with the bladder cannula,"male Sprague Dawley rats [3]; 0.308 mg/mL, individual animals 47, 48",bladder associated with the bladder cannula mild; also recorded: bladder associated with the bladder cannula moderate
same,Observations at necropsy: erythemia of bladder surface (grade),male Sprague Dawley rats [3]; [8],Slight erythemia; also recorded: Slight erythemic
same,"Observations at necropsy: erythemia, share of surface",male Sprague Dawley rats [3]; [8],20 % of surface (2×) and < 5 % of surface
same,Bladder tolerability and tissue permeability criteria (overall),male Sprague Dawley rats [3]; Example 2,both bladder tolerability and tissue permeability
same,"Blood and kidney platinum concentrations, in contrast to cisplatin",[4]; 72-hour bladder perfusion,Comparatively low
same,Bladder platinum concentrations compared to cisplatin and carboplatin,"[4]; 72-hour bladder perfusion, FIGS. 12A-12B",significant platinum bladder concentrations
same,Platinum concentration in the kidney or prostate,"[4]; 72-hour bladder perfusion, terminal tissues",No appreciable platinum concentration
same,Blood concentrations (blood profile) compared with cisplatin and carboplatin,"[4]; 72 hour bladder perfusion, FIG. 10",fell between cisplatin and carboplatin
